Some test systems named below: A549 NSCLC; BT-549 breast; EKVX NSCLC; HOP-92 NSCLC; MDA-MB-231 breast; NCI-H522 lung; NCI/ADR-RES ovarian; OVCAR-3 ovarian; OVCAR-8 ovarian; PC-3 prostate; SF-295 CNS; SK-MEL-28 melanoma; SN12C renal.
What all share (assay): inhibition of tumour cell growth, NCI panel, 48 h

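96-well plates; 48 h exposure; 5 concentrations. Endpoints by linear interpolation between flanking doses. Not reached: highest tested concentration assigned. The concentration for full growth arrest is given as TGI.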

For 10 compounds, TGI results are on record in PubChem BioAssay (NCI).

Consider `N=C1/C(=C/c2ccccc2)C(=O)N=C2SC=NN12`, for which the TGI in the experiment with A549 NSCLC, in the experiment on BT-549 breast, in the experiment on EKVX NSCLC, in the experiment with HOP-92 NSCLC, in the experiment on MDA-MB-231 breast and with NCI-H522 lung was greater than 100 µM each time. For the same compound, the TGI with NCI/ADR-RES ovarian, in the experiment with OVCAR-3 ovarian, in the experiment with OVCAR-8 ovarian, with PC-3 prostate, in the experiment on SF-295 CNS and in the experiment with SK-MEL-28 melanoma was greater than 100 µM each time. The compound also had a TGI in the experiment with SN12C renal greater than 100 µM.

`c1ccc(CNCCCNCCCCNCCCNCc2ccccc2)cc1`: the TGI in the experiment with A549 NSCLC came out at 45.5 µM; in the experiment with BT-549 breast it was 33.3 µM; in the experiment on EKVX NSCLC, 23.1 µM; in the experiment on HOP-92 NSCLC, 3.57 µM; in the experiment with MDA-MB-231 breast, 22.1 µM; in the experiment with NCI-H522 lung, 3.37 µM. The TGI in the experiment on NCI/ADR-RES ovarian is greater than 100 µM; in the experiment on OVCAR-3 ovarian, 28.3 µM; in the experiment with OVCAR-8 ovarian it was 27 µM; in the experiment on PC-3 prostate, 11.2 µM; with SF-295 CNS it was 35.2 µM; with SK-MEL-28 melanoma it was 26.7 µM. This compound also gave a TGI with SN12C renal of 15.5 µM.

Take `COC(=O)C(=O)c1cc2ccccc2n1S(=O)(=O)c1ccccc1`: the TGI in the experiment with A549 NSCLC, with BT-549 breast, in the experiment with EKVX NSCLC, with HOP-92 NSCLC, in the experiment on MDA-MB-231 breast and in the experiment on NCI-H522 lung was greater than 100 µM throughout. Also, the TGI with NCI/ADR-RES ovarian, with OVCAR-3 ovarian, in the experiment on OVCAR-8 ovarian, in the experiment with PC-3 prostate, in the experiment on SF-295 CNS and with SK-MEL-28 melanoma was greater than 100 µM throughout. In the experiment on SN12C renal, the TGI was greater than 100 µM.

Regarding `CC(=O)C1=C(C)N(c2ccc(C)cc2)C2(O)C=CC(=O)C3=C(O)c4ccccc4C(=O)C312` (stereo not given), the TGI in the experiment on A549 NSCLC was greater than 100 µM; in the experiment on BT-549 breast, 38.9 µM; in the experiment with EKVX NSCLC, 61.2 µM; in the experiment with HOP-92 NSCLC, greater than 100 µM; in the experiment with MDA-MB-231 breast it was 70.2 µM; with NCI-H522 lung, 32.5 µM. Moreover, the TGI with NCI/ADR-RES ovarian is greater than 100 µM; in the experiment on OVCAR-3 ovarian, 16.1 µM; with OVCAR-8 ovarian it was 64.6 µM; with PC-3 prostate it was 41.5 µM; in the experiment on SF-295 CNS, 43.3 µM; with SK-MEL-28 melanoma, 34.5 µM. This compound came in with a TGI with SN12C renal of 36.9 µM.

As to `CC(C)CNC(=O)c1c(NC(=O)c2ccccc2)sc2[nH]c(=O)n(-c3ccccc3)c(=O)c12`, the TGI in the experiment with A549 NSCLC was greater than 100 µM; in the experiment on BT-549 breast, 77.4 µM; in the experiment on EKVX NSCLC it was greater than 100 µM; with HOP-92 NSCLC, 19.7 µM; in the experiment with MDA-MB-231 breast, 52.6 µM; in the experiment with NCI-H522 lung, greater than 100 µM. Further, the TGI in the experiment on NCI/ADR-RES ovarian is greater than 100 µM; with OVCAR-3 ovarian, greater than 100 µM; with OVCAR-8 ovarian it was greater than 100 µM; in the experiment with PC-3 prostate it was greater than 100 µM; with SF-295 CNS, 67.1 µM; in the experiment with SK-MEL-28 melanoma, greater than 100 µM. Also, in the experiment on SN12C renal, the TGI was greater than 100 µM.

Take `[O-]/N=N\c1on[n+](CCc2ccccc2)c1Cc1c(/N=N/[O-])on[n+]1CCc1ccccc1`: the TGI in the experiment with A549 NSCLC was greater than 100 µM; in the experiment on BT-549 breast, 78.1 µM; in the experiment on EKVX NSCLC it was greater than 100 µM; with HOP-92 NSCLC, 65.8 µM; with MDA-MB-231 breast, 88.6 µM; with NCI-H522 lung it was 43.8 µM. Moreover, the TGI is greater than 100 µM in the experiment on NCI/ADR-RES ovarian; 39.8 µM in the experiment with OVCAR-3 ovarian; 46.4 µM in the experiment on OVCAR-8 ovarian; greater than 100 µM with PC-3 prostate; 74.2 µM with SF-295 CNS; greater than 100 µM with SK-MEL-28 melanoma. In the experiment on SN12C renal, this compound returned a TGI greater than 100 µM.

For `Cc1ccc(C)c(NC(=O)/C(=N\N)C(c2cnc3ccc([N+](=O)[O-])cc3n2)[N+](=O)[O-])c1` (stereo not given), the TGI in the experiment on A549 NSCLC, with BT-549 breast, in the experiment with EKVX NSCLC, in the experiment on HOP-92 NSCLC, in the experiment with MDA-MB-231 breast and in the experiment on NCI-H522 lung was greater than 100 µM in each case. The TGI in the experiment on NCI/ADR-RES ovarian, with OVCAR-3 ovarian, in the experiment with OVCAR-8 ovarian, in the experiment on PC-3 prostate, in the experiment with SF-295 CNS and in the experiment with SK-MEL-28 melanoma was greater than 100 µM in each case. The compound also showed a TGI in the experiment on SN12C renal greater than 100 µM.

As for `C=CCC1(O)C(=O)OC2C(O)COC21O` (stereo not given), the TGI in the experiment on A549 NSCLC, in the experiment on BT-549 breast, with EKVX NSCLC, with HOP-92 NSCLC, in the experiment on MDA-MB-231 breast and in the experiment with NCI-H522 lung was greater than 100 µM each time. The TGI with NCI/ADR-RES ovarian, in the experiment on OVCAR-3 ovarian, with OVCAR-8 ovarian, with PC-3 prostate, with SF-295 CNS and with SK-MEL-28 melanoma was greater than 100 µM throughout. This compound also had a TGI in the experiment with SN12C renal greater than 100 µM.

Consider `NC(CCC(=O)NC(CSC(=O)N(O)c1ccc(Cl)cc1)C(=O)NCC(=O)O)C(=O)O` (stereo not given), for which the TGI in the experiment on A549 NSCLC, in the experiment on BT-549 breast, in the experiment on EKVX NSCLC, in the experiment on HOP-92 NSCLC, with MDA-MB-231 breast and in the experiment on NCI-H522 lung was greater than 0.5 µM in each case. For the same compound, the TGI in the experiment with NCI/ADR-RES ovarian, in the experiment on OVCAR-3 ovarian, in the experiment with OVCAR-8 ovarian, in the experiment with PC-3 prostate, in the experiment with SF-295 CNS and in the experiment on SK-MEL-28 melanoma was greater than 0.5 µM each time. The compound also registered a TGI with SN12C renal greater than 0.5 µM.

Take `O=CN1CCN(C(=O)c2ccc(Cl)cc2)C1=S`: the TGI was 28 µM in the experiment on A549 NSCLC; 69.2 µM in the experiment on BT-549 breast; 29 µM in the experiment on EKVX NSCLC; 14.9 µM with HOP-92 NSCLC; 34.5 µM in the experiment with MDA-MB-231 breast; 31.2 µM with NCI-H522 lung. The TGI with NCI/ADR-RES ovarian is greater than 100 µM; with OVCAR-3 ovarian, 28.7 µM; with OVCAR-8 ovarian it was 31.3 µM; with PC-3 prostate, 32.1 µM; in the experiment with SF-295 CNS, 76 µM; in the experiment on SK-MEL-28 melanoma, 39.6 µM. The compound also returned a TGI in the experiment on SN12C renal of 28 µM.
